Literature values in patent US20200345666A1, “HERBAL MEDICINAL TABLET FORMULATION FOR TREATING OBESITY WHICH CAN BE […] ON SASANG CONS[…]” (NUBEBE CO., LTD., priority 2017, published 2020).

Conditions: taken for 20 weeks or more; Journal of Korean Medicine 2017

## CN[C@@H](C)[C@H](O)c1ccccc1 [ephedrine]
  weight and body fat loss compared to control group: showed weight and body fat loss
